According to publication PMC12669040, “Tumour-specific STING agonist synthesis via a two-component prodrug system” (Nature Chemistry, 2025):
Where two headings read alike, the source gives them in different places.

How the values were obtained:
serum cytokines = assay: Multiplexed cytokine profiling of sera, MC38 model; type: in vivo, C57BL/6 mice; conditions: sera obtained on Day 9, PBS = 1
Procedure: This study used Luminex xMAP technology for multiplexed quantification of 44 mouse cytokines, chemokines and growth factors. The multiplexing analysis was performed using the Luminex 200 system (Luminex) by Eve Technologies Corp. […] markers were simultaneously measured in the samples using Eve Technologies’ Mouse Cytokine 44-Plex Discovery Assay, which consists of two separate kits, one 32-plex and one 12-plex (MilliporeSigma), following the manufacturer’s protocol. […] The sensitivities of individual analytes are available in the MilliporeSigma MILLIPLEX MAP protocol. […] MC-38 cells were inoculated into the right flank of C57BL/6 mice and treated once tumors reached about 90 mm^3. […] Source data

[1] = parameters: method as in PMID 32820094; conditions: cited from earlier work
THP-1 cells = assay: Dilution limits of N1/E4 combination to activate THP-1 cells (IFN-β ELISA)
[2] = target: T1, wild-type human STING LBD (hSTINGwt 138-379) (Homo sapiens, UniProt Q86WV6, H232R); assay: Isothermal titration calorimetry (ITC), reverse titration; type: binding
T1 construct: SUMO (N, cleaved yes); made in house; host or cells: Escherichia coli BL21 (DE3)
T1 sequence (Q86WV6 138-379 H232R): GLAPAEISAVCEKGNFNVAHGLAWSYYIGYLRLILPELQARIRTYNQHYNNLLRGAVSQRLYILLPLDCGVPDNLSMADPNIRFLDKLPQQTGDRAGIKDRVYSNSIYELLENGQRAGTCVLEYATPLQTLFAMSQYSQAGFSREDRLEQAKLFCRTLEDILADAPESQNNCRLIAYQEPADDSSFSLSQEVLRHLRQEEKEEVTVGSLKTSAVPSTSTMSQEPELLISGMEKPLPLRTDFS
Procedure: Escherichia coli BL21 (DE3) (Thermo Scientific EC0114) was transformed with a pET28a plasmid (Genscript) harbouring the codon-optimized sequence of SUMO-hSTINGwt (aa138-379). Transformed BL21 cells were inoculated into LB medium (50 µg ml^−1 kanamycin) and incubated at 180 rpm, 37 °C overnight. The overnight culture was then diluted (1:100 dilution) in 2× YT medium (50 µg ml^−1 kanamycin) and incubated at 180 rpm, 37 °C until optical density at 600 nm (OD600) reached 0.6 (approximately 3 h). The bacterial culture was then cooled to 16 °C, induced with 0.5 mM isopropyl 1-thio-D-galactopyranoside and incubated overnight at 180 rpm, 16 °C. The bacterial cells were pelleted at 4,000g for 30 min, resuspended in 20 ml of lysis buffer (25 mM HEPES pH 7.5, 150 mM NaCl, 20 mM imidazole and 2 mM TCEP supplied with 2 tablets of cOmplete mini EDTA-free protease inhibitors) and disrupted by sonication on ice. The total lysate was clarified by centrifugation at 22,000g for 30 min. The supernatant was collected and filtered through a 0.45-µm filter (Millipore SLHAR33SS). The clarified lysate was then incubated on a roller with 10 ml bed volume of Ni-NTA resin (Thermo Scientific 88223) at 4 °C for 1 h. The Ni-NTA resin was then packed in a column, flushed with 20 ml of wash buffer (25 mM HEPES pH 7.5, 150 mM NaCl and 20 mM imidazole) and eluted with 40 ml of elution buffer (25 mM HEPES pH 8.0, 150 mM NaCl and 250 mM imidazole). The eluted protein was concentrated to approximately 5 ml (Millipore Amicon 10 kDa molecular weight cut-off (MWCO)) and buffer-exchanged into storage buffer (25 mM HEPES pH 7.5 and 150 mM NaCl). TCEP was then added to a final concentration of 2 mM, and 250 units of SUMO protease (Merck SAE0067) were added. The cleavage reaction mixture was left to stand at 4 °C overnight until LC–MS analysis indicated the completion of the cleavage reaction. The cleavage mixture was incubated with 10 ml bed volume of Ni-NTA resin on a roller at 4 °C for 1 h and packed in a disposable column. The flowthrough was collected, and the resin was further flushed with 20 ml of wash buffer. The eluted fractions were combined, concentrated and further purified by size-exclusion chromatography (Cytiva, Superdex 200 Increase 10/300 GL). The purified protein in storage buffer was concentrated to 330 µM (dimer concentration) as determined by bicinchoninic acid (BCA) assay, aliquoted, flash-frozen in liquid nitrogen and stored at −80 °C for future use.
The binding constants of purified dimers were measured by ITC (Malvern Panalytical AutoITC200) in a reverse-titration format. Stock DMSO solutions of each dimer were dissolved in titration buffer (25 mM HEPES pH 7.5 and 150 mM NaCl) to a final concentration of 25 µM and added to the titration cell. The syringe was filled with 250 µM of purified STING in a matching buffer. Titration was performed at 25 °C with the following parameters: 750 rpm stirring, 0.2 µl initial injection followed by 2-µl injections of the […] every 120 s. Titration of STING protein into blank buffer was separately performed and subtracted from the raw data before the analysis. The background-subtracted titration curves were fitted with the built-in Origin software using the standard one-site model.
Extended Data Fig. 2 Isothermal titration calorimetry (ITC) data for binding constant measurements. Purified hSTINGwt138-379 (250 μM of homodimer) was titrated into each dimer (25 μM) dissolved in a matching buffer (25 mM HEPES pH 7.5, 150 mM NaCl) at 25 °C and 750 rpm stirring. Binding constants were reported as the average from duplicate measurements.

With COc1cc2cc(C(=O)CCC(=O)O)sc2cc1OC [MSA2] the CCL3 (serum cytokines) was 1.442, the CCL4 (serum cytokines) was 0.7068 and the CCL12 (serum cytokines) was 5.215. The CXCL2 (serum cytokines) was 1.851, the EPO (serum cytokines) was 1.36 and the G-CSF (serum cytokines) was 2.042. It also gave an IFNγ (serum cytokines) of 0.4672, an IL-1β (serum cytokines) of 1.9772 and an IL-3 (serum cytokines) of 0.512. It also gave an IL-6 (serum cytokines) of 4.186, an IL-12p40 (serum cytokines) of 0.2035 and an IL-12p70 (serum cytokines) of 1.442. The IL-15 (serum cytokines) was 0.4244, the IL-16 (serum cytokines) was 1.895 and the IL-17 (serum cytokines) was 1.777. For the same compound, the M-CSF (serum cytokines) was 0.6463, the TARC (serum cytokines) was 1.519 and the “tumour and plasma concentration after intratumoural injection” value [1] was “its concentration in the tumour decreased rapidly past the 2-h timepoint, and substantial leakage into the plasma occurred”.

For COc1cc2sc(C(=O)CCC(=O)O)cc2cc1SCCSc1cc2cc(C(=O)CCC(=O)O)sc2cc1OC [SC2S], the “Response from SC2S, OD 450” value (THP-1 cells; 0.195312 uM) was 0.075, the “Response from SC2S, OD 450” value (THP-1 cells; 0.390625 uM) was 0.634 and the “Response from SC2S, OD 450” value (THP-1 cells; 0.78125 uM) was 1.146. For the same compound, the “Response from SC2S, OD 450” value (THP-1 cells; 1.5625 uM) was 2.392, the “Response from SC2S, OD 450” value (THP-1 cells; 3.125 uM) was 2.683 and the “Response from SC2S, OD 450” value (THP-1 cells; 6.25 uM) was 2.764. For the same compound, the “Response from SC2S, OD 450” value (THP-1 cells; 12.5 uM) was 2.752, the “Response from SC2S, OD 450” value (THP-1 cells; 25 uM, defined as 100% activation) was 2.757 and the Kd ([2]; 25 °C, average of duplicate measurements, read-out: Kd hSTINGwt (binding constant, ITC)) was 176 nM. It also gave a Kd ([2]; ITC run _01, read-out: Kd) of 191 nM and a Kd ([2]; ITC run _02, read-out: Kd) of 160 nM.
